Data on two compounds can be found in patent US4587342A, “2,4-diamino-(substituted-benzopyran(quinolyl,isoquinoly)methyl)pyrimidine s useful as antibacterials” (priority 1980, dated 1986).

In series [1] the test system is four individual gram negative microorganisms and one isolate of S. aureus. Briefly: Checkerboard potentiation study with SMX, overall. Type of series: cell-based. As to conditions: words. On the procedure:
2. Compound Preparation. Compound 1, trimethoprim (TMP) and SMX were each treated with N,N-dimethylformamide for 30 minutes. Dilutions were prepared using sterile distilled water.
3. Testing procedure. Two checkerboard patterns were set-up, namely: 1. SMX and TMP-lactate and 2. SMX and compound 1-lactate. Thirteen, two-fold dilutions of compound 1-lactate were prepared with final concentrations ranging from 6.2 ug/ml to 0.0016 ug/ml. Twenty two, two-fold dilutions of SMX were prepared with final plate concentrations ranging from 31 ug/ml to 0.000016 ug/ml. An analogous checkerboard scheme was set-up for the combination TMP and SMX. Microorganisms were grown on Wellcotest Sensitivity Test Agar containing various concentrations and permutations of compounds.
From the MIC's, a fractional inhibitory concentration (FIC) was calculated. This involves determining a fraction by dividing the MIC of an agent in combination over the MIC of the agent alone (1). If it is less than one, the interaction is synergistic, and if the sum is greater than one, the combination is antagonistic.

The subject of series [2] is Vibrio cholerae ATCC14035. In words: MIC against Vibrio cholerae ATCC14035 in vitro. The format is cell-based. The conditions noted are these: ATCC14035, read-out: Minimum Inhibitory Concentration (MIC). The source says:
(§1) The compounds of the present invention were subjected to standard tests in order to determine the minimum inhibitory concentration in μg/ml needed to inhibit a range of bacterial microorganisms in-vitro.

Series [3] deals with Esch. coli CN314. Briefly: MIC against Esch. coli CN314 in vitro. Type of series: cell-based. The conditions noted are these: Escherichia coli, read-out: Minimum Inhibitory Concentration (MIC).
Text: as §1

Series [4] concerns Pr. mirabilis S2409. Briefly: MIC against Pr. mirabilis S2409 in vitro. The format is cell-based. The conditions noted are these: Proteus mirabilis, read-out: Minimum Inhibitory Concentration (MIC).
Text: as §1

The subject of series [5] is Gonococci. In words: MIC against Gonococci in vitro. Type of series: cell-based. As to conditions: Gonococci (average 17 strains); read-out: Minimum Inhibitory Concentration (MIC).
Text: as §1

A short description of series [6]: Acute toxicity in mouse. As to conditions: in vivo, ip; i.p. mouse.
A short description of series [7]: Acute toxicity in rat. The conditions noted are these: in vivo, po; p.o. rat.
Series [8] has as its system St. faecalis CN478. Briefly: MIC against St. faecalis CN478 in vitro. Type of series: cell-based. As to conditions: Enterococcus faecalis, read-out: Minimum Inhibitory Concentration (MIC).
Text: as §1

The subject of series [9] is B. fragilis. In words: MIC against B. fragilis in vitro. Type of series: cell-based. As to conditions: Bacteroides fragilis; B. fragilis (average 3-10 strains); read-out: Minimum Inhibitory Concentration (MIC).
Text: as §1

The subject of series [10] is Salmonella dublin. Briefly: Experimental salmonellosis in calves. Type of series: in vivo. As to conditions: for Mortality: 5 days from two days after infection, deaths/calves.
In series [11] the test system is St. agalactiae CN1143. Briefly: MIC against St. agalactiae CN1143 in vitro. Type of series: cell-based. As to conditions: Streptococcus agalactiae, read-out: Minimum Inhibitory Concentration (MIC).
Text: as §1

Series [12] deals with Staph. aureus CN491. In words: MIC against Staph. aureus CN491 in vitro. The format is cell-based. As to conditions: Staphylococcus aureus, read-out: Minimum Inhibitory Concentration (MIC).
Text: as §1

Series [13] deals with Meningococci. Briefly: MIC against Meningococci in vitro. The format is cell-based. As to conditions: Meningococci (average 5 strains); read-out: Minimum Inhibitory Concentration (MIC).
Text: as §1

Series [14] relates to Salmonella dublin. As to conditions: even at 40 mg/kg/day; cited from earlier work.

Molecules are shown by their SMILES. Values after ≈ are worked out from the molar mass of the structure shown. “Also recorded” adds a separate entry of the source.

For `COc1cc(Cc2cnc(N)nc2N)c2c(c1OC)OCC=C2` [Compound 1, 2,4-Diamino-5-(7,8-dimethoxy-2 --H--1-benzopyran-5-ylmethyl)-pyrimidine], in series [1], the “in vitro potentiation with SMX” value was “SMX appears to potentiate compound 1 as well as it does TMP; also recorded: in vitro potentation can be demonstrated between SMX and compound 1 in the case of four individual gram negative microorganisms and one isolate of S. aureus”. The MIC was 0.05 mg/L (≈ 0.159 µM) in series [2]; 0.05 mg/L (≈ 0.159 µM) in series [3]; 5 mg/L (≈ 15.9 µM) in series [4]; 10 mg/L (≈ 31.8 µM) in [5]; 0.05 mg/L (≈ 0.159 µM) in series [8]; 1.08 mg/L (≈ 3.44 µM) in series [9]. For the same compound, the MIC in series [11] worked out at 0.05 mg/L (≈ 0.159 µM); in series [12], 0.05 mg/L (≈ 0.159 µM); in series [13], 3.1 mg/L (≈ 9.86 µM). The LD50 in series [6] was 610 mg/kg; in series [7] it was more than 1000 mg/kg. For the same compound, the values for the Mortality in series [10] (0.5 mg/kg daily plus SDZ 20 mg/kg) and in [10] (1 mg/kg daily plus SDZ 20 mg/kg) were 3/7 and 0/6, respectively. Besides, in [10] (0.5 mg/kg plus SDZ 20 mg/kg, in comparison with TMP 1 mg/kg), the “reduction of mortality, in words” value is reported as “produced a reduction of mortality comparable with that in group 1 (TMP, 1 mg/kg)”. In series [10] (1 mg/kg each, plus SDZ 20 mg/kg), the “efficacy relative to TMP” value is given as “clearly superior to TMP at 1 mg/kg”. Besides, the “recovery of the survivors” value in series [10] (1 mg/kg plus SDZ 20 mg/kg, in comparison with TMP 1 mg/kg (group 1)) was “much more rapid recovery of the survivors in group 2”. The “effectiveness relative to TMP” value in [10] (with SDZ 20 mg/kg, conclusion from all groups) was “approximately twice as effective as TMP in this disease syndrome”.

For `Nc1ccc(S(=O)(=O)Nc2ncccn2)cc1` [SDZ], in [14], the “effect on mortality, SDZ alone” value was “no effect on mortality in this disease model”.
